Measurements reported in US11980598B2, “N-(2-(substituted-naphth-1-yl)ethyl) substituted amide compound, preparation and uses thereof” (BEIJING GREATWAY PHARMACEUTICAL TECHNOLOGY CO., LTD., priority 2017, dated 2024).

Legend:
[1] = tested on: SD rats; assay: Forced rat swimming test; type: in vivo; settings: 10 mg/kg i.g., 3 days, last 5 of 6 min
Method: Animals: Kunming mice, male, body weight 18-22 g, SPF grade; SD rats, male, body weight 150-180 g, SPF grade. The test was carried out after acclimatization, and the animal was fasted for 12 hours before the test.
All drugs for the test were suspended and dispersed in a 1% aqueous solution of hydroxypropyl methylcellulose (HPMC), and shaken well before use. […] The doses for administration were all 10 mg/kg. For the concentration and volume for administration, see J Psychiatry Neurosci 2004; 29(2):126-133. The mice were intraperitoneally administered in a volume of 0.5 mL/20 g; and the rats were administered by i.g. in a volume of 2 mL/100 g.
Rats were randomly divided into groups according to weight balance. Rats were administered by i.g. for three consecutive days, once a day. One hour after administration on the third day, the forced swimming test was performed. The rats were placed in a round glass jar with a height of 40 cm, an inner diameter of 18 cm, a water depth of 23 cm, and a water temperature of 25° C. The rats were allowed to swim for 6 minutes, and the accumulated immobility time in the last 5 minutes was recorded.

[2] = tested on: SD rats; assay: Anxiety behavior model of repeatedly administrated rat: novelty-suppressed feeding test; type: in vivo; settings: D12
Method: The requirements for test animals, drug formulation and administration were the same as those of the rat chronic mild stress model.
Instruments: Vogel drinking anxiety device for rat and O-maze device for rat were manufactured by Shanghai XinRuan Company. The rat feeding chamber was a home-made white plastic box (60×45×25 cm).
The rats were administrated continuously by i.g. once a day. A novelty-suppressed feeding test, a Vogel drinking conflict test, and an O-maze test were performed on a different day, respectively. Each behavior test was performed at 9:00-12:00, and the administration time was 16:00-17:00. The test process was as follows: D12, novelty-suppressed feeding test (animals were fasted for 48 hours before the test); D18, Vogel drinking conflict test (animals were banned from water for 48 hours before the test); D21, O-maze test.
Common paddings with a thickness of 1.5 cm were placed at the floor of the rat feeding chamber, and six equal-sized food pellets were placed in the center. During the test, the rats were individually placed in a fixed position of the feeding chamber, and observed for 5 minutes. The time from rat entry to the start of biting or chewing the food was recorded with a stopwatch.

[3] = tested on: chronic stress rat; assay: Chronic unpredictable stress model of rat: open-field activity test; type: in vivo; settings: stress rats, day 28, 5 min
Method: Animals: SD rats, male, weighing 150-180 g, SPF grade.
Formulation and administration mode of drugs: All drugs for the test were suspended and dispersed with a 0.5% aqueous solution of CMC-Na, and shaken well before use. The rats were administered by i.g. at a volume of 10 mL/kg.
Rats were acclimatized for 3 days after purchase. First, 48 h of sucrose training was performed. After the training, a sucrose baseline test was performed. The rats were randomly and evenly grouped according to sucrose preference. Then, (dl) a 4-week chronic unpredictable stress (CUS) procedure was performed with the following stress methods: (1) food deprivation (fasting); (2) water deprivation; (3) stroboflash; (4) overnight illumination; (5) wet feeding (200 ml of water was added to 150 g of sawdust bedding); (6) noise stimulation (110 dB), 1 h; (7) swimming in cold water (the water temperature was 10° C.); (8) cage tilt (45 degrees of inclination); (9) tail pinch (at 1 cm away from the tail root) for 6 min; (10) restraint for 1-2 h. One of the above stress methods was used randomly every day, but water deprivation and fasting were separated. The corresponding drugs (including the blank control group and the positive drug group) were given 1 h before the stress in the morning every day. Behavior test was performed after the end of the chronic stress. d25, sucrose preference; d28, open-field; d31, novelty-suppressed feeding test.
On the 28th day of the stress program, the rats were placed in the middle compartment of an open chamber, and a 60 W light bulb was placed 45 cm directly above them. The activities of the rats were observed within 5 minutes, including the number of times crossing a compartment horizontally (the number of times crossing into an adjacent compartment with three or more claws), and the number of times rearing (the number of times the forelimbs are more than 1 cm off the ground). Note: the test environment of the test should be kept as quiet as possible; the rats should be placed in the same position and direction each time; and the animal's excretion should be removed after each test.

[4] = tested on: SD rats; assay: Acute toxicity test of rat; type: in vivo; settings: for Acute reaction after single administration / Adverse reactions during 14-day observation / Body weight compared with the blank group: rats, 2000 mg/kg i.g.
Method: Rats were administered by i.g. at a dose of 2000 mg/kg. The drugs were dispersed with a 1% aqueous solution of hydroxypropyl methylcellulose (HPMC).

[5] = In vitro metabolism study, human liver microsomal incubation system; type: in vitro ADME
Method: TSQ Quantum liquid chromatography-mass spectrometer (LC/MS/MS) from Finnigan Inc, USA, chromatography column: TSKgel Amide-80 column (2.0 mm I.D.×100 mm, 5 μm); mobile phase: acetonitrile-water-formic acid (50:50:0.1); flow rate: 0.2 mL/min; injection volume: 5 μL; column temperature: room temperature. Ionization source is electrospray ionization (ESI) with 4.8 KV of spray voltage; capillary temperature (TEM): 300° C.; sheath gas: N2, flow rate: 10 psi; auxiliary gas: N2, flow rate: 1 psi; collision gas (CID): Ar at a pressure of 1.5 mTorr. The mass spectrometry scanning method was selective reaction monitoring (SRM) and detected by positive ion method. The internal standard was a […] solution of aconitine in acetonitrile, the minimum limit of quantification was 5 ng/mL, and the correlation coefficient was >0.99.
Approximately 10 mg of each sample to be tested was accurately weighed, dissolved in 0.1 mL of DMSO, and serially diluted with purified water to a 10 μM, 1 μM standard stock solution. An ice bath was operated and the incubation system for detection was formulated according to Table 4. NADPH was added to the incubation system to start the reaction, and then 50 μL was immediately added to 150 μL acetonitrile as a zero-time sample and a 1 μM standard curve sample. Another 1 μM standard stock solution was added to the incubation system, and then 50 μL was immediately added to 150 μL acetonitrile as a 0.1 μM standard curve sample. […] Each sample was shaken, and centrifuged at 18000 g for 10 min. The supernatant was taken for LC/MS/MS injection and determination.

[6] = incubation time 0 min, 1 μM, 1 mg/mL microsome, 37° C.

SMILES	Immobility time [1] [s]	Feeding latency ([2]; 10 mg/kg i.g. once a day) [s]	Feeding latency ([2]; 20 mg/kg i.g. once a day) [s]	Feeding latency ([2]; 40 mg/kg i.g. once a day) [s]	Number of times crossing a compartment horizontally ([3]; 10 mg/kg i.g. daily)	Number of times rearing ([3]; 10 mg/kg i.g. daily)	Number of times crossing a compartment horizontally ([3]; 20 mg/kg i.g. daily)	Number of times rearing ([3]; 20 mg/kg i.g. daily)	Number of times crossing a compartment horizontally ([3]; 40 mg/kg i.g. daily)	Number of times rearing ([3]; 40 mg/kg i.g. daily)	Acute reaction after single administration [4]	Adverse reactions during 14-day observation [4]	Body weight compared with the blank group [4]	Concentration measured at incubation time point [5, 6] [µM]	Concentration measured at incubation time point ([5]; incubation time 5 min) [µM]	Concentration measured at incubation time point ([5]; incubation time 15 min) [µM]	further results
COc1ccc2cccc(CCNC(C)=O)c2c1 [Agomelatine, reference compound]	73.5 ± 38.5	208 ± 26	163 ± 25	124 ± 25	33.4 ± 4.2	18.1 ± 1.1	33.9 ± 2.4	16.7 ± 1.8	38.9 ± 3.6	17.3 ± 1.1	8 rats were slow to move or became lethargic, and all returned to normal within 2 hours	no obvious adverse reactions within 14 days after the administration	no significant difference in body weight compared with the blank group	0.999 ± 0.059	0.539 ± 0.019	0.009 ± 0.005	
[2H]C([2H])([2H])Oc1cc2c(CCNC(C)=O)cccc2cc1Cl [Example 1, N-(2-(6-chloro-7-deuteromethoxy-naphthalen-1-yl)ethyl)acetamide]	51.0 ± 32.4	141 ± 17	124 ± 18	120 ± 14	36.4 ± 4.2	14.6 ± 1.7	36.5 ± 2.9	15.9 ± 1.1	34.9 ± 3.0	17 ± 1.5	the activity of the rats became slightly smaller but there were no obvious adverse reactions	no obvious adverse reactions within 14 days after the administration	no significant difference in body weight compared with the blank group	1.001 ± 0.019	0.793 ± 0.108	0.194 ± 0.046	Feeding latency ([2]; 5 mg/kg i.g. once a day): 232 ± 23 s; Number of times crossing a compartment horizontally ([3]; 5 mg/kg i.g. daily): 36.8 ± 4.4; Number of times rearing ([3]; 5 mg/kg i.g. daily): 15.1 ± 1.3; Safety compared with control drug ([4]; rat model, overall): safer than the control drug Agomelatine; Metabolic stability in human liver microsome (comparison) ([5]; compared among examples and controls): highest metabolic stability; Concentration measured at incubation time point ([5]; incubation time 30 min): 0.110 ± 0.088 µM
